Measurements as given in patent US10766926B2, “Composition for autophagy inhibiting in cell, and pharmaceutical composition for preventing or treating tumor disease, or inhibiting anti-cancer agents resistance containing the same” (L-BASE CO., LTD, priority 2018, dated 2020).

What was measured:
[1] = tested on: PC9 cell line and PC9-ER cell line; assay: MTT assay, resistance of PC9 and PC9-ER cell lines to anticancer agents; format: cell-based; conditions: anticancer agent 1/10-fold serial dilution, 24 hours, FIGS. 3A and 3B
Description: The cancer cell line (PC9) used in the present invention was cultured in a minimum essential medium in a conditioned incubator (37° C.) supplemented with 10% fetal bovine serum and antibiotics. The cancer cell line (PC9-ER) was constructed to have resistance by exposing to erlotinib as an anticancer agent for a long period of time.
Additionally, the MTT assay was performed so as to confirm the resistance of the PC9 cell line and the PC9-ER cell line to anticancer agents.
(§1) Specifically, an equal number of the PC9 cell line and the PC9-ER cell line were cultured in a 96-well cell culture plate, treated with an anticancer agent subjected to a 1/10-fold serial dilution for 24 hours, and confirmed using MTT. As an experiment to utilize the principle that NADH present in the mitochondria of a living cell reacts with MTT to form formazan, formazan was dissolved in DMSO and its absorbance was measured at 570 nm and thereby the growth activity of the cells was confirmed.

PC9-ER cell line [2] = assay: MTT assay, resistance of PC9-ER cell line to anticancer agent after polypeptide treatment; format: cell-based; conditions: conclusion of Example 2
Description: Additionally, the PC9-ER cell line was treated with the polypeptide 1, polypeptide 2, and GNTITIKT (polypeptide 3), respectively, and the MTT assay was performed so as to confirm the resistance of the PC9-ER cell line to anticancer agents.
as §1, with “Specifically,” for “Specifically, an equal number of the PC9 cell line and”, “was plated on” for “were cultured in”, “plate and” for “plate,”, “treated with each of the polypeptides (1 to 3) for 24 hours. Then, the cells were treated for” for “treated”, “hours” for “hours,”

H1975 cell line = assay: MTT assay, resistance of H1975 cell line to osimertinib after polypeptide treatment; format: cell-based; conditions: for anticancer activity through the inhibition of autophagy: conclusion of Example 5
Description: Additionally, after the treatment with the polypeptide 1, polypeptide 2, and polypeptide 3, respectively, the MTT assay was performed so as to confirm the resistance to osimertinib (Tagrisso), an anticancer agent.
Specifically, an equal number of cells of the H1975 cell line were plated into a 96-well cell culture plate and treated with the polypeptides (1 to 3) for 24 hours. Then, the cells were treated with osimertinib (Tagrisso), an anticancer agent, which was subjected to a 1/10-fold serial dilution, for 24 hours and were confirmed using MTT. As an experiment to utilize the principle that NADH present in the mitochondria of a living cell reacts with MTT to form formazan, formazan was dissolved in DMSO and its absorbance was measured at 570 nm and thereby the growth activity of the cells was confirmed.

MCF7^R cell line [3] = assay: LC3 immunofluorescence staining in MCF7^R cell line; format: cell-based; conditions: 24 hours treatment, confocal microscopy, FIG. 13
Description: Additionally, after the treatment with the polypeptide 2 in the MCF7^R cell line, the immunofluorescence staining was performed.
(§2) Specifically, after treating the polypeptide 2 on the MCF7^R cell line for 24 hours, the cells were fixed at room temperature using 4% formaldehyde. Then, the cells were reacted at room temperature for 30 minutes so as to prevent inaccurate binding to antibodies using PBS containing 0.1% BSA, and allowed to react with LC3 antibodies (cell signaling) at 4° C. for 24 hours. After removing the antibodies, the cells were washed with PBS and allowed to react with secondary antibodies (Thermo Fisher) labeled with Alexa 488 fluorescence at room temperature for 1.5 hours. After the reaction, the cells from which antibodies were removed were washed with PBS and stained with DAPI (Thermo Fisher) for 1 minute.

PC9-ER cell line [4] = assay: western blot of autophagy mechanism proteins in PC9-ER cell line treated with polypeptide; format: cell-based; conditions: FIG. 4
Description: An attempt was made to confirm the inhibitory effects of SPTPKT (polypeptide 1) and QTATAKA (polypeptide 2) against autophagy, based on the results that the expression of ATG5 and ATG5-ATG12 proteins which are known to be involved in autophagy in the cancer cell line (PC9-ER).
Specifically, the PC9-ER cell line was treated with each of the polypeptide 1 and the polypeptide 2 and the expression levels of Beclin1, p-Belclin1, ATG5-ATG12, LC3 I, and LC3 II (i.e., proteins associated with autophagy mechanism) were compared by western blot method, and the results are shown in FIG. 4.

H1975 cells = assay: western blot of autophagy controlling proteins in H1975 cells; format: cell-based; conditions: FIG. 10
PC9-ER cell line [5] = assay: inhibitory effect against tumor formation, PC9-ER tumor in nude mice; format: in vivo, athymic nude mice (BALB/C nude); conditions: PC9-ER tumor in nude mice, 0, 50, 100, 200 μg/mouse, 5 injections through caudal vein, measured on day 41; FIGS. 8A-8C
Description: (§3) Specifically, athymic nude mice (BALB/C nude, 5 to 6-week old females) were subcutaneously injected on the side with the PC9-ER cell line (2×10^6 cells/mouse) to induce tumor. When the tumor volume reached about 150 mm^3, the polypeptide 2 was injected a total of 5 times through the caudal vein and the changes in the tumor size were examined. The tumor volume was directly measured using a caliper and calculated by the following equation (length×width×height×0.5). In order to confirm the inhibitory effect of the polypeptide 2 against tumor formation, the peptide (at concentrations of 0 μg/mouse, 50 μg/mouse, 100 μg/mouse, and 200 μg/mouse) was injected 5 times through the caudal vein from day 25 at 3 day intervals. On the 41st day, the tumors were separated and the sizes of the tumor volumes were measured, and western blot was performed using each labeled antibody.

PC9-ER cell line [6] = assay: western blot of tumor tissue from PC9-ER tumor-bearing nude mice; format: in vivo, athymic nude mice (BALB/C nude); conditions: 50-200 μg/mouse, FIG. 9
Description: as §3

PC9-ER cell line [7] = assay: LC3 immunofluorescence staining in PC9-ER cell line; format: cell-based; conditions: 24 hours after treatment, confocal microscopy, FIG. 5
Description: Additionally, the cells were subjected to immunofluorescence staining after treating the PC9-ER cell line with the polypeptide 2.
as §2, with “Specifically, 24 hours” for “Specifically,”, “PC9-ER” for “polypeptide 2 on the MCF7^R”, “with the polypeptide 2,” for “for 24 hours,”

MCF7^R cell line [8] = assay: western blot of autophagy controlling proteins in MCF7^R cell line; format: cell-based; conditions: FIG. 12
Description: MCF7^R cancer cell line having resistance to anticancer agents was constructed to have resistance by exposing to celastrol for a long period of time
To examine the effects of the polypeptide 1 and the polypeptide 2 on the proteins of autophagy controlling mechanism, western blot was performed using each labeled antibody in the MCF7^R cell line.

Compound	resistance of PC9-ER cell line to the anticancer agent compared to PC9 cell line [1]	inhibitory effect against autophagy in the cancer cell line having resistance to anticancer agents (PC9-ER cell line [2])	anticancer activity through the inhibition of autophagy (H1975 cell line)	expression levels of Beclin1, p-Beclin1, ATG5-ATG12, LC3 I and LC3 II proteins (PC9-ER cell line [4])	expression of p-AMPK, p-Beclin1, ATG5, ATG5-ATG12, LC3 I and LC3 II (H1975 cells)	expression level of p62 protein (MCF7^R cell line [8])	expression levels of p-Beclin1, ATG5, ATG5-ATG12, LC3 I and LC3 II proteins (MCF7^R cell line [8])	other results
CC(=O)O[C@@]12CO[C@@H]1C[C@H](O)[C@@]1(C)C(=O)[C@H](O)C3=C(C)[C@@H](OC(=O)[C@H](O)[C@@H](NC(=O)OC(C)(C)C)c4ccccc4)C[C@@](O)([C@@H](OC(=O)c4ccccc4)[C@H]21)C3(C)C [docetaxel]	higher resistance							
CC(=O)O[C@H]1C(=O)[C@@]2(C)[C@H]([C@H](OC(=O)c3ccccc3)[C@]3(O)C[C@H](OC(=O)[C@H](O)[C@@H](NC(=O)c4ccccc4)c4ccccc4)C(C)=C1C3(C)C)[C@]1(OC(C)=O)CO[C@@H]1C[C@@H]2O [taxol]	higher resistance							
GNTITIKT [polypeptide 3]		inhibitory effect against autophagy	anticancer activity					
QTATAKA [polypeptide 2]		inhibitory effect against autophagy	anticancer activity	lowered	lowered	increased	reduced	expression level of LC3 puncta (MCF7^R cell line [3]): lowered; size of tumors (tumor volume) (PC9-ER cell line [5]): significantly reduced; expression of p-AMPK, Beclin1 and p-Beclin1 proteins in tumor tissue (PC9-ER cell line [6]): decreased in a concentration-dependent manner; expression of p-mTOR and p62 proteins in tumor tissue (PC9-ER cell line [6]): increased in a concentration-dependent manner; expression level of LC3 puncta (PC9-ER cell line [7]): lowered; resistance to osimertinib (Tagrisso), polypeptide at different concentrations (H1975 cell line; MTT): reduced in a concentration-dependent manner
SPTPKT [polypeptide 1]		inhibitory effect against autophagy	anticancer activity	lowered	lowered	increased	reduced	
